Experimental data: ChEMBL document CHEMBL1135872, “Oxyaniliniums as acetylcholinesterase inhibitors for the reversal of neuromuscular block” (Bioorg Med Chem Lett, 2002)

Columns and labels:
Acetylcholinesterase = Acetylcholinesterase (Homo sapiens, UniProt P22303); assay: In vitro inhibitory activity against human recombinant AChE
Cavia porcellus = species on record: Cavia porcellus; assay: In vitro potency in reversing vecuronium-induced block in guinea pig hemidiaphram; format: functional
Felis catus [1] = assay: Tested for change in LV dp/dt at dose of 2.56 umol/kg in cat; format: functional
Felis catus [2] = assay: Tested for change in heart rate at dose of 2.56 umol/kg in cat; format: functional
Felis catus [3] = assay: Tested for change in LV pressure at dose of 2.56 umol/kg in cat; format: functional
Felis catus [4] = assay: Tested for change in arterial pressure at dose of 2.56 umol/kg in cat; format: functional, Artery
Felis catus [5] = assay: Tested for effect on nictitating membrane at dose of 2.56 umol/kg in cat; format: functional
Felis catus [6] = assay: Tested for effect on autonomic vagal membrane at dose of 2.56 umol/kg in cat; format: functional
Felis catus [7] = assay: Tested for effect on nictitating membrane at dose of 0.076 umol/kg in cat; format: functional
Felis catus [8] = assay: Tested for change in heart rate at dose of 0.076 umol/kg in cat; format: functional
Felis catus [9] = assay: Tested for change in arterial pressure at dose of 0.076 umol/kg in cat; format: functional, Artery
Felis catus [10] = assay: Tested for change in LV pressure at dose of 0.076 umol/kg in cat; format: functional
Felis catus [11] = assay: Tested for effect on autonomic vagal membrane at dose of 0.076 umol/kg in cat; format: functional
Felis catus [12] = assay: Tested for change in LV dp/dt at dose of 0.076 umol/kg in cat; format: functional
Felis catus [13] = species on record: Felis catus; assay: Effective dose required to reverse vecuronium-induced neuromuscular block in cat; format: functional
Felis catus [14] = assay: Tested for effect on autonomic vagal membrane at dose of 1.28 umol/kg in cat; format: functional
Felis catus [15] = assay: Tested for change in LV dp/dt at dose of 1.28 umol/kg in cat; format: functional
Felis catus [16] = assay: Tested for change in LV pressure at dose of 1.28 umol/kg in cat; format: functional
Felis catus [17] = assay: Tested for change in heart rate at dose of 1.28 umol/kg in cat; format: functional
Felis catus [18] = assay: Tested for change in arterial pressure at dose of 1.28 umol/kg in cat; format: functional, Artery
Felis catus [19] = assay: Tested for effect on nictitating membrane at dose of 1.28 umol/kg in cat; format: functional
Felis catus [20] = assay: Tested for change in LV dp/dt at dose of 2.1 umol/kg in cat; format: functional
Felis catus [21] = assay: Tested for change in heart rate at dose of 2.1 umol/kg in cat; format: functional
Felis catus [22] = assay: Tested for effect on nictitating membrane at dose of 2.1 umol/kg in cat; format: functional
Felis catus [23] = assay: Tested for change in LV pressure at dose of 2.1 umol/kg in cat; format: functional
Felis catus [24] = assay: Tested for change in arterial pressure at dose of 2.1 umol/kg in cat; format: functional, Artery
Felis catus [25] = assay: Tested for effect on autonomic vagal membrane at dose of 2.1 umol/kg in cat; format: functional
Felis catus [26] = assay: Tested for change in heart rate at dose of 1.026 umol/kg in cat; format: functional
Felis catus [27] = assay: Tested for change in LV dp/dt at dose of 1.026 umol/kg in cat; format: functional
Felis catus [28] = assay: Tested for change in LV pressure at dose of 1.026 umol/kg in cat; format: functional
Felis catus [29] = assay: Tested for change in arterial pressure at dose of 1.026 umol/kg in cat; format: functional, Artery
Felis catus [30] = assay: Tested for effect on autonomic vagal membrane at dose of 1.026 umol/kg in cat; format: functional
Felis catus [31] = assay: Tested for effect on nictitating membrane at dose of 1.026 umol/kg in cat; format: functional

Acetylcholinesterase, sequence (P22303 whole entry): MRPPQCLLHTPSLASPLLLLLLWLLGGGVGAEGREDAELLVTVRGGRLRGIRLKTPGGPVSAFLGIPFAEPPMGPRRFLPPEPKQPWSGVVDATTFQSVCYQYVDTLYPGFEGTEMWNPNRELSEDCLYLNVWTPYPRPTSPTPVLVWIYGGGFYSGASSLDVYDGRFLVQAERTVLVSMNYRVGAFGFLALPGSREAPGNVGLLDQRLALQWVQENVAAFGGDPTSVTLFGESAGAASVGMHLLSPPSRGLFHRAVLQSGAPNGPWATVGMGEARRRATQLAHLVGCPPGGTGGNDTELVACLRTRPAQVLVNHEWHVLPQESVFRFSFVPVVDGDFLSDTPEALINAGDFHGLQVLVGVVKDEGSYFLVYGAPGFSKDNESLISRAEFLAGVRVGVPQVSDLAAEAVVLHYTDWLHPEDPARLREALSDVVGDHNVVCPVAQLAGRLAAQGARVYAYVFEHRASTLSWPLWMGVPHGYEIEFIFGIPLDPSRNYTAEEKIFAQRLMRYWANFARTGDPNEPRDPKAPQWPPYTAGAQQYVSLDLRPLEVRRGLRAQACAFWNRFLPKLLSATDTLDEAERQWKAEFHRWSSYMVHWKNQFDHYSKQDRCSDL

Structure (SMILES) | IC50 (Acetylcholinesterase) [µM] | IC50 (Cavia porcellus) [µM] | also measured
COc1ccc(C(=O)CCc2cccc([N+](C)(C)C)c2)cc1OC | > 10 |  | 
COc1ccccc1[N+](C)(C)Cc1ccccc1 | > 10 | > 3 | 
C[N+](C)(Cc1ccccc1)c1cccc(O)c1 | > 10 | > 3 | 
CC(=O)Oc1ccccc1[N+](C)(C)Cc1ccccc1 | > 10 | > 3 | 
COc1ccc(C(=O)COc2cccc([N+](C)(C)Cc3ccccc3)c2)cc1OC.[Br-] | 0.33 | 1.69 | Change (Felis catus [1]): 82%; Change (Felis catus [2]): 8%; Change (Felis catus [3]): 63%; Change (Felis catus [4]): 56%; Change (Felis catus [5]): 34%; Change (Felis catus [6]): 5%
CN(C)C(=O)Oc1cccc([N+](C)(C)C)c1.[Br-] [NEOSTIGMINE BROMIDE] |  | 0.028 | Change (Felis catus [7]): 6%; Change (Felis catus [8]): 4%; Change (Felis catus [9]): 22%; Change (Felis catus [10]): -14%; Change (Felis catus [11]): 62%; Change (Felis catus [12]): 12%
COc1ccc(C(=O)CCc2ccc([N+](C)(C)Cc3ccccc3)cc2)cc1OC | 1.3 | 4.11 | 
C=CC[N+](C)(C)c1cccc(OC(C)=O)c1 | 1 | 3.87 | 
C[N+](C)(Cc1ccccc1)c1ccccc1O | > 10 | > 3 | 
COc1ccc(C(=O)CCc2cccc([N+](C)(C)Cc3ccccc3)c2)cc1OC | 1.04 | > 3 | 
C=C(C)C[N+](C)(C)c1cccc(OC)c1 | > 10 | > 3 | 
C=CC[N+](C)(C)c1ccccc1OC.[Br-] | 1 | 2.89 | ED50 (Felis catus [13]): 0.22 µmol/kg; Change (Felis catus [14]): 41%; Change (Felis catus [15]): 9%; Change (Felis catus [16]): 9%; Change (Felis catus [17]): 2%; Change (Felis catus [18]): 24%; Change (Felis catus [19]): 2%
C=CC[N+](C)(C)c1ccc(OCC(=O)c2ccc(OC)c(OC)c2)cc1 | 10 | 0.5 | 
C=C(C)C[N+](C)(C)c1ccccc1O | > 10 | > 3 | 
COc1ccc(C(=O)COc2cccc([N+](C)(C)C)c2)cc1OC | 10 | 7.08 | 
C=C(C)C[N+](C)(C)c1cccc(O)c1 | > 10 | > 3 | 
COc1ccc(C(=O)COc2ccc([N+](C)(C)C)cc2)cc1OC | 10 | 9.8 | 
CC(=O)Oc1ccc([N+](C)(C)Cc2ccccc2)cc1 | > 10 | > 3 | 
C=CC[N+](C)(C)c1ccccc1O.[Br-] | 1.85 | 74 | Change (Felis catus [20]): 8%; ED50 (Felis catus [13]): 0.5 µmol/kg; Change (Felis catus [21]): 1%; Change (Felis catus [22]): 5%; Change (Felis catus [23]): 12%; Change (Felis catus [24]): 2%; Change (Felis catus [25]): 5%
C=CC[N+](C)(C)c1cccc(O)c1 | 3 | 13 | 

Structure (SMILES) | IC50 (Acetylcholinesterase) [µM] | IC50 (Cavia porcellus) [µM] | also measured
C[N+](C)(Cc1ccccc1)c1ccc(O)cc1 | > 10 | > 3 | 
C[N+](C)(Cc1ccccc1)Cc1cccc(O)c1 | > 10 |  | 
COc1ccc([N+](C)(C)Cc2ccccc2)cc1 | > 10 | > 3 | 
CC(=O)Oc1cccc([N+](C)(C)Cc2ccccc2)c1 | > 10 | > 3 | 
COc1cccc(C[N+](C)(C)C)c1 | > 10 |  | 
COc1ccc(C(=O)CCc2ccc([N+](C)(C)C)cc2)cc1OC | 3 | 2 | 
COc1cccc(C[N+](C)(C)Cc2ccccc2)c1 | > 10 |  | 
C=CC[N+](C)(C)Cc1cccc(OC)c1 | > 10 | > 3 | 
C[N+](C)(C)Cc1cccc(O)c1 | > 10 | > 3 | 
C=CC[N+](C)(C)c1cccc(OC)c1 | > 10 | > 3 | 
C=CC[N+](C)(C)Cc1cccc(O)c1 | > 10 | > 3 | 
C=C(C)C[N+](C)(C)c1ccccc1OC | > 10 | > 3 | 
CC[N+](C)(C)c1cccc(O)c1.[Br-] [EDROPHONIUM BROMIDE] |  | 2.77 | Change (Felis catus [26]): 2%; Change (Felis catus [27]): 20%; Change (Felis catus [28]): 23%; Change (Felis catus [29]): 22%; Change (Felis catus [30]): -67%; Change (Felis catus [31]): 7%
C=C(C)C[N+](C)(C)c1ccc(O)cc1 | > 10 | > 3 | 
C=CC[N+](C)(C)c1ccc(OC(C)=O)cc1 | > 10 | > 3 | 
COc1cccc([N+](C)(C)Cc2ccccc2)c1 | > 10 | > 3 | 
C=CCC[N+](C)(C)c1ccccc1O | 10 | > 10 | 
COc1ccc(C(=O)COc2ccc([N+](C)(C)Cc3ccccc3)cc2)cc1OC | 10 | 19.4 | 
C=CC[N+](C)(C)c1ccc(OC)cc1 | > 10 | > 3 | 
C=CC[N+](C)(C)c1ccc(O)cc1 | > 10 | > 3 | 
